Test results as given in patent US4845123A, “Reduction in vivo of the inappropriate levels of endogenous and environmental-derived compounds by sustained-release inhibitors of β- g” (priority 1985, dated 1989).

How the values were obtained:
bladder tumor [1] = settings: Uemura et al. 1975; cited from earlier work
Organ DNA = assay: in vivo covalent binding of [14C]BP to organ DNA; set-up: species or system rat; settings: for Covalent Binding Index (of BP), +DAGDL: DAGDL 1.5 mmol/kg 0.5 hours before [14C]BP; for inhibition at 1500 µmol/kg: Rattus norvegicus, DAGDL 1.5 mmol/kg
Experimental: Experimental rats were pretreated 0.5 hours earlier with one dose of 1.5 mmol/kg body weight of DAGDL which was administered by stomach tube as a suspension in 1.0 ml of sesame oil, while control rats received the vehicle only. The experimental and control group contained 2 rats each. Heart, kidney, liver, lung and mammary gland were removed under ether anesthesia 48 hours post-administration of BP. The DNA was isolated immediately and purified by chloroform phenol extraction of organ homogenates. In the case of mammary gland, the homogenate was treated with collagenase II. Following purification with ribonuclease A and protease K, the DNA concentration was estimated by U.V. absorption and the bound radioactivity was determined by radioassay in liquid scintillant.
In this experiment 50 day old female rats of the Sprague Dawley strain received 1.5 mmol/kg of DAGDL 0.5 hours before the intraperitoneal injection of 7.9 μmol/kg of [^14 C]BP. The DNA was extracted from the tissues and radioassayed by established procedures.

[2] = tested on: MNU-induced mammary tumors; assay: MNU-induced mammary carcinogenesis; format: in vivo, rat; settings: MNU 40 mg/kg i.v., DAGDL 2 dose schedule; FIG. 10
Experimental: In this experiment, MNU (40 mg/kg) was administered to 50 day old Sprague Dawley female rats by i.v. injection. One half of the rats were co-administered DAGDL according to a 2 dose schedule.

[3] = tested on: diabetes, rheumatoid arthritis, toxemia in pregnancy and bladder cancer; settings: review of the medical literature; cited from earlier work
bladder tumor [4] = settings: Miyakawa et al. 1973; DAGDL given at same time as carcinogen; cited from earlier work
bladder tumors = settings: Boyland et al. 1964 (GL); Katayama 1972 (DAGDL); cited from earlier work
[5] = Furuno et al. 1975; cited from earlier work
[6] = tested on: tumor initiation by 7,12-dimethylbenzanthracene (DMBA); settings: Walaszek et al. 1984; cited from earlier work
[7] = acute toxicity (weight loss) of N-methylnitrosourea; format: in vivo, rat; settings: 21 days after treatment with MNU
serum β-glucuronidase = molecular target: T1, serum β-glucuronidase (Rattus norvegicus, UniProt P06760); settings: Iida et al. 1965; cited from earlier work
T1 sequence (P06760 23-648): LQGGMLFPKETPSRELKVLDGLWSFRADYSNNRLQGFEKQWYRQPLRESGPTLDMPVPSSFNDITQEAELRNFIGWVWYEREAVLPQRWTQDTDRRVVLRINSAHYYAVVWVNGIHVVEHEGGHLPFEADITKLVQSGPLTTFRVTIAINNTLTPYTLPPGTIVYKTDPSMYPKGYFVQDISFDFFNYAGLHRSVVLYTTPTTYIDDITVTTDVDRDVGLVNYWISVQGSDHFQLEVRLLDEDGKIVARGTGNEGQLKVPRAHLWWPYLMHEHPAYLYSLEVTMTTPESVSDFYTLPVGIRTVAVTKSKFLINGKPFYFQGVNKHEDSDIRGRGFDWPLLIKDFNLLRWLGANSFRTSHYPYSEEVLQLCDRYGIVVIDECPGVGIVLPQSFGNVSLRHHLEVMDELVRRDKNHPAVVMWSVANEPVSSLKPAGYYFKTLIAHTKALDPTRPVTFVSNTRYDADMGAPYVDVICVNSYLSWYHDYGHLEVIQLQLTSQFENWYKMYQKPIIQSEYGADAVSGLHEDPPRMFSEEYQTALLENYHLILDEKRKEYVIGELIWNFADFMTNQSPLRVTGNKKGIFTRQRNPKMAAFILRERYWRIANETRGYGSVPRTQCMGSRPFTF

[8] = tested on: DMBA-induced mammary tumors; assay: DMBA-induced mammary tumorigenesis, initiation, promotion and tumor regression; format: in vivo, rat
Experimental: Fifty day old female Sprague Dawley rats were utilized in these experiments. For induction of mammary tumors the rats received a single dose of 130 mg/kg of DMBA in sesame oil by gavage. Animals pretreated with CGT received 4.5 mmoles/kg of CGT in sesame oil at 3 hours and again at 0.5 hours before administration of the carcinogen. This protocol tests the inhibitory effect of CGT on the initiation phase. Alternatively, the rats were fed a standard chow diet supplemented with 10% CGT (w/w). To evaluate the effect of CGT on the promotion phase the rats were changed from the chow diet to the CGT supplemented diet two weeks after treatment with DMBA. One mole of glucarate is converted to approximately one-third of a mole of GL in an equilibrated aqueous solution.
The mammary tumors were measured with micrometer calipers. Two measurements were taken, the longest dimension and dimension at right angles to this parameter.
At this time, the rats were transferred from a chow diet to a chow diet supplemented with 10% CGT. This diet was continued until the termination of the experiment. […] Three groups each, with eighteen 50 day old rats, were given intragastrically a single dose of 20 mg of DMBA in 1.0 ml of sesame oil. One group ( -- ) received 4.5 mmoles/kg of CGT by stomach tube at 3 hours and again at 0.5 hours before DMBA. A second (control) group (.circle.O--O.circle.) received vehicle (i.e. sesame oil) only at the same two time periods. Both of these groups were then put on regular chow diet.

SMILES: CC(=O)O[C@@H]1C(=O)O[C@H]2[C@@H]1OC(=O)[C@@H]2OC(C)=O [DAGDL, 2,5-di-O-acetyl-D-glucaro-1,4;6,3-dilactone]
- inhibition of N-butyl-N-(4-butanol)nitrosamine-mediated bladder tumor (bladder tumor [1]): unsuccessful
- Covalent Binding Index (of BP), +DAGDL (Organ DNA; Heart): 10
- Covalent Binding Index (of BP), +DAGDL (Organ DNA; Kidney): 12
- Covalent Binding Index (of BP), +DAGDL (Organ DNA; Liver): 9
- Covalent Binding Index (of BP), +DAGDL (Organ DNA; Lung): 8
- Covalent Binding Index (of BP), +DAGDL (Organ DNA; Mammary gland): 20
- inhibition at 1500 µmol/kg (Organ DNA; Heart): 44%
- inhibition at 1500 µmol/kg (Organ DNA; Kidney): 69%
- inhibition at 1500 µmol/kg (Organ DNA; Liver): 63%
- inhibition at 1500 µmol/kg (Organ DNA; Lung): 72%
- inhibition at 1500 µmol/kg (Organ DNA; Mammary gland): 47%
- inhibition of mammary tumor development [2]: approx. 4 fold
- treatment of existing diseases [3]: unsuccessful
- effect on bladder tumor incidence with 2-AAF (bladder tumor [4]): did not disclose any significant difference
- clinical effect in prevention of bladder tumors (bladder tumors): only a slight beneficial effect
- clearance of antibiotics which cause kidney damage [5]: inconclusive results
- effect on initiation of tumor by DMBA [6]: inhibited
- difference in toxicity-induced weight loss of DAGDL-treated and non-treated rats [7]: approximately 100 g
- potency as in vivo β-glucuronidase inhibitor (serum β-glucuronidase): potent

SMILES: O=C([O-])[C@@H](O)[C@@H](O)[C@H](O)[C@@H](O)C(=O)[O-].[Ca+2] [CGT, calcium D-glucarate]
- effect on DMBA-induced tumors which escape the anti-promoter effects ([8]; 10% CGT diet): significant regression
- reduction of the overall tumor incidence due to tumor regression ([8]; 10% CGT diet): 14%
- effect on promotion phase of DMBA-induced mammary carcinogenesis ([8]; 10% CGT diet from 2 weeks post-DMBA): significantly inhibits the promotion phase
- tumor induction as percent of that in the controls ([8]; 10% CGT diet from 2 weeks post-DMBA (promotion phase), by 28 weeks): 30%
- Average Tumor Volume ([8]; 10% CGT diet, 16 wks (spread ± 0.57 on separate line)): 2.82 cm^3
- Average Tumor Volume ([8]; 10% CGT diet, 20 wks (spread ± 0.76 on separate line)): 2.17 cm^3
- Average Tumor Volume ([8]; 10% CGT diet, 24 wks (spread ± 0.87 on separate line)): 1.87 cm^3
- Average Tumor Volume ([8]; 10% CGT diet, 28 wks): 1.20 ± 0.82 cm^3
- Average Tumor Volume ([8]; 10% CGT diet, 32 wks): 1.02 ± 0.77 cm^3
- reduction in percentage of rats with tumors ([8]; 10% CGT diet, average, between 18 and 28 days (so in the source)): 70%
- overall tumor incidence ([8]; 10% CGT supplemented diet beginning 2 weeks post-DMBA treatment): 33%
- tumors per rat in rats with tumors ([8]; CGT diet supplemented group, essentially all rats with tumors): only one tumor per rat
